Reference: US5780441A, “Sphingoglycolipid compounds and therapeutic uses thereof” (Kirin Beer Kabushiki Kaisha, priority 1993, dated 1998)

What was measured:
mouse splenic lymphocyte = test: In vitro mouse splenic lymphocyte-proliferation-stimulating effect (3H-TdR uptake); type: cell-based, mouse (BDF1 female); conditions: 2 days
Summary of the method: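 Spleen cells from 6-week-old female BDF1 mice, 2×10^6 cells/ml in 10% FCS RPMI 1640, cultured with vehicle or sample 2 days at 37° C, 5% CO2. ^3H-TdR (0.5 μCi/well) uptake over 6 h by scintillation counting, expressed as % of vehicle.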

[1] = system: mixed lymphocyte culture reaction (spleen cells of C57BL/6 and BALB/C mice); test: Mixed lymphocyte culture reaction (MLR); type: cell-based, mouse (C57BL/6 stimulator, BALB/C responder); conditions: 42 hours; for activity at 1 µg/mL / activity at 0.1 µg/mL: Mus musculus, Lymphocyte, read-out: MLR activating rate (%)
Summary of the method: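 Mouse one-way MLR: mitomycin C-treated (50 μg/ml, 30 min) C57BL/6 spleen cells stimulated BALB/C responder spleen cells, 2×10^6 cells/ml each, cultured 42 h at 37 °C with sample. ³H-thymidine (0.5 μCi/well) incorporation over a further 8 h gave MLR activating rate as % of vehicle uptake.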

[2] = Solubility in water in aqueous Polysorbate 20 solutions; type: physicochemical; conditions: for amount of Polysorbate 20 required for dissolving, relative to that required for Compound b: vs Compound b
Protocol: Compounds a and b comprising a monosaccharide as a constituent sugar which are disclosed in WO 93/05055 were synthesized as above. A 1 mg of each of the present compounds 4, 31 and 33 and Compound a and b was dissolved in 1 ml of an aqueous Polysorbate 20 solution in a variety of concentrations in order to observe visually the property.

[3] = system: P388 mouse leukemia cells; test: Life-span-prolonging (anti-tumor) effect on mice subcutaneously inoculated with P388 mouse leukemia cells; type: in vivo, mouse (CDF1 female); conditions: for Survival days ave. ± s. d.: all marked ** (p < 0.01); for response vs control in vivo at 0.1 mg/kg: Mus musculus, P388, iv, read-out: T/C (%); for life-span-prolonging effect (anti-tumor effect), in words: P388 s.c. system
Summary of the method: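 CDF1 female mice (6 weeks), 5 per group, inoculated subcutaneously with P388 leukemia cells; life-span prolongation assessed. Lentinan and picibanil given intravenously on days 1, 3, 5, 7 and 9 after implantation; sizofilan given subcutaneously on days 1 through 9. Statistics by Mann-Whitney test.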

mouse bone marrow cells = test: In vitro mouse bone marrow cell-proliferation-promoting effect (3H-TdR uptake); type: cell-based, mouse (BDF1 female); conditions: 4 days; for activity at 0.1 µg/mL / activity at 0.01 µg/mL: Mus musculus, Bone marrow cell, 96 h, read-out: Uptake of 3H-TdR (% of control), bone marrow cells
Summary of the method: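 Femoral bone marrow monocytes from 6-week female BDF1 mice (Lympholite M fraction, 1×10^6 cells/ml in 10% FCS RPMI 1640) cultured with sample for 4 days at 37 °C, 5% CO2. 3H-TdR (0.5 μCi/well) added for final 6 h; uptake ratio versus vehicle reported as activation rate.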

[4] = system: mouse splenic lymphocytes; test: Influence of Polysorbate on immunostimulating effect (3H-TdR uptake into mouse splenic lymphocytes); type: cell-based, mouse (BDF1 female); conditions: for 3H-TdR uptake in words, compound with Polysorbate 20: 10 μg/ml (0.1% Polysorbate 20) and 1 μg/ml (0.01%) vs 0.1 μg/ml (0.001%); for 3H-TdR uptake: mean of 3 wells
Protocol: Experiment was performed with BDF1 female mice (6 weeks old) purchased from NIPPON SLC K.K. Spleens were removed from mice, and spleen cells were brayed with slide glasses and hemolized with NH4 Cl. 2×10^6cells/ml of the spleen cells which had been hemolized were suspended in 10% FCS RPMI 1640. The cell suspension (100 μl/well) and a vehicle or sample (10 μl/well) which was prepared so as to have a final level shown in Table 3 were added into wells of a round-bottomed 96 well plate, and cultured under the condition of 5% CO2 at 37° C. for 2 days. 0.5 μCi/well of ^3 H-thymidine (^3 H-TdR) was added. After 6 hours, the cells were harvested, and the amount of ^3 H-TdR uptaken into nucleus was measured by a liquid scintillation counter. The ratio (%) of the uptake of ^3 H-TdR in the sample group to that in the vehicle group was calculated and used as the in vitro mouse splenic lymphocyte-proliferation-stimulating rate.
A sample of a solution of 1 mg of Compound 33 prepared in Experimental Example 8 in 1 ml of 10% or 0.1% Polysorbate 20, a sample of a solution of 1 mg of Compound b in 1 ml of 10% Polysorbate 20, or 10% and 0.1% Polysorbate 20, were prepared by subjecting to aseptic filtration followed by sequential 10 time dilution with PBS as shown in Table 5 in order to carry out the experiment described in Experimental Example 6.
In this connection, 1 mg of Compound b was insoluble in 0.1% Polysorbate, and thus no experiment was conducted.

lethally irradiated mice = test: Radioprotective effect: life-span prolongation of lethally irradiated mice; type: in vivo, mouse (BDF1 female); conditions: 0.1 mg/kg i.v. days 0, 4, 8, 9 Gy X-ray, groups of 10
Protocol: Life-span-prolonging effects of the present compounds on lethally irradiated mice.
Experiment was performed with BDF1 female mice (6 weeks old) purchased from NIPPON SLC K.K., which were divided into groups consisting of 10 animals. Mice were irradiated generally with 9 Gy of X-ray with an X-ray generating apparatus, Hitachi, MBR-1520R (radiation day: day 0). Samples at a dose of 0.1 mg/kg were administered into tail vein on days 0, 4 and 8 in order to observe the mortality of the animals for 40 days.
In the table, two experiments are separated by the broken line.

B16 mouse melanoma cells = test: Tumor growth inhibition in mice subcutaneously inoculated with B16 mouse melanoma cells; type: in vivo, mouse (BDF1 female); conditions: 0.1 mg/kg i.v. days 1, 5, 9; maximum during 20 days
Protocol: ii) Anti-tumor effect of the compound according to the present invention on mice subcutaneously inoculated with B16 mouse melanoma cells.
Experiment was performed with BDF1 female mice (6 weeks) purchased from NIPPON SLC K.K., which were divided into groups consisting of 6 animals. […]. The subcutaneous tumor volumes [(length×width×height)/2] were measured on days 8, 12, 16 and 20 after implantation to determine the tumor growth inhibiting rate (TGIR) of each sample. TGIR was calculated from the following formula: […]
wherein C: tumor volume in the control group, and
T: tumor volume in the sample adminitered groups.
In this connection, Compounds 1-6 and 7-9 were tested in the same time, respectively.

[5] = Mus musculus, Splenic lymphocyte, 48 h, 10^0 μg/ml, read-out: Uptake of 3H-TdR (% of control), splenic lymphocytes
[6] = 0.1 mg/kg i.v. on days 1, 5 and 9
[7] = 0.1 mg/kg i.v. on days 1, 5 and 9, survival vs vehicle
[8] = 10% PS20 stock (compound 1 mg/ml), dilution 10^2
[9] = 10% PS20 stock (compound 1 mg/ml), dilution 10^3
[10] = 10% PS20 stock (compound 1 mg/ml), dilution 10^4
[11] = 10% PS20 stock (compound 1 mg/ml), dilution 10^5

Row | Compound | activity at 1 µg/mL (mouse splenic lymphocyte; [5]) [%] | activity at 1 µg/mL ([1]; 1 × 10^0 μg/ml) [%] | activity at 0.1 µg/mL ([1]; 1 × 10^-1 μg/ml) [%] | amount of Polysorbate 20 required for dissolving, relative to that required for Compound b [2] | Survival days ave. ± s. d. [3, 6] [days] | response vs control in vivo at 0.1 mg/kg [3, 7] [%] | life-span-prolonging effect (anti-tumor effect), in words [3] | activity at 0.1 µg/mL (mouse bone marrow cells; 10^-1 μg/ml) [%] | activity at 0.01 µg/mL (mouse bone marrow cells; 10^-2 μg/ml) [%] | 3H-TdR uptake in words, compound with Polysorbate 20 [4] | 3H-TdR uptake [4, 8] [cpm] | 3H-TdR uptake [4, 9] [cpm] | 3H-TdR uptake [4, 10] [cpm] | 3H-TdR uptake [4, 11] [cpm] | also measured
1 | CCCCCCCCCCCCCCCCCCCCCCCCCC(=O)N[C@@H](CO[C@H]1O[C@H](CO[C@H]2O[C@H](CO)[C@H](O)[C@H](O)[C@H]2O)[C@@H](O)[C@H](O)[C@H]1O)[C@H](O)[C@H](O)CCCCCCCCCCCCCC [Compound 31, O-α-D-galactopyranosyl-(1→6)-O-α-D-glucopyranosyl-(1→1)-(2S,3S,4R)-2-amino-N-hexacosanoyl-1,3,4-octadecanetriol] | 615 | 206 | 196 | 1/100 | 14.6 ± 0.5 | 114 | intensive anti-tumor effects almost in the same level as that of Compound b | 296 | 594 |  |  |  |  |  | activity at 0.001 µg/mL (mouse splenic lymphocyte; Mus musculus, Splenic lymphocyte, 48 h, 10^-3 μg/ml, read-out: Uptake of 3H-TdR (% of control), splenic lymphocytes): 744%
2 | CCCCCCCCCCCCCCCCCCCCCCCCCC(=O)N[C@@H](CO[C@H]1O[C@H](CO[C@H]2O[C@H](CO)[C@H](O)[C@H](O)[C@H]2O)[C@H](O)[C@H](O)[C@H]1O)[C@H](O)[C@H](O)CCCCCCCCCCCCCC [Compound 33, O-α-D-galactopyranosyl-(1→6)-O-α-D-galactopyranosyl-(1→1)-(2S,3S,4R)-2-amino-N-hexacosanoyl-1,3,4-octadecanetriol] | 954 | 302 | 251 | 1/100 | 15.0 ± 0.7 | 117 | intensive anti-tumor effects almost in the same level as that of Compound b | 214 | 763 | suppressed | 119 | 18447 | 24671 | 21677 | 3H-TdR-uptake-stimulating effect, in words ([4]; 10 μg/ml (0.001% Polysorbate 20)): intensive ^3 H-TdR-uptake-stimulating effect; 3H-TdR uptake ([4]; 0.1% PS20 stock (compound 1 mg/ml), dilution 10^2): 24213 cpm; 3H-TdR uptake ([4]; 0.1% PS20 stock (compound 1 mg/ml), dilution 10^3): 23332 cpm; 3H-TdR uptake ([4]; 0.1% PS20 stock (compound 1 mg/ml), dilution 10^4): 26249 cpm; 3H-TdR uptake ([4]; 0.1% PS20 stock (compound 1 mg/ml), dilution 10^5): 23653 cpm
3 | CCCCCCCCCCCCCCCCCCCCCCCCCC(=O)N[C@@H](CO[C@H]1O[C@H](CO)[C@H](O)[C@H](O)[C@H]1O)[C@H](O)[C@H](O)CCCCCCCCCCCCCC [Compound b, (2S,3S,4R)-1-(α-D-galactopyranosyloxy)-2-hexacosanoylamino-3,4-octadecanediol, reference compound] |  |  |  |  | 15.6 ± 0.5 | 122 |  | 381 | 438 | suppressed | 201 | 18300 | 24439 | 25555 | solubility in Polysorbate, in words ([2]; 1 mg in 0.1% Polysorbate): insoluble
4 | O-(N-acetyl-2-amino-2-deoxy-α-D-galactopyranosyl)-(1→3)-O-[α-D-glucopyranosyl-(1→2)]-O-α-D-galactopyranosyl-(1→1)-(2S,3S,4R)-2-amino-N-[(R)-2-hydroxytetracosanoyl]-16-methyl-1,3,4-octadecanetriol [Compound 9] |  |  |  |  | 16.4 ± 1.8 |  |  |  |  |  |  |  |  |  | Number of surviving mice (lethally irradiated mice; day 10): 10 mice; Number of surviving mice (lethally irradiated mice; day 15): 8 mice; Number of surviving mice (lethally irradiated mice; day 20): 5 mice; Number of surviving mice (lethally irradiated mice; day 25): 3 mice; Number of surviving mice (lethally irradiated mice; day 30): 3 mice; Number of surviving mice (lethally irradiated mice; day 35): 3 mice; Number of surviving mice (lethally irradiated mice; day 40): 3 mice; Uptake of 3H-TdR (% of control), splenic lymphocytes (mouse splenic lymphocyte; 10^0 μg/ml): 902 % of control; Uptake of 3H-TdR (% of control), splenic lymphocytes (mouse splenic lymphocyte; 10^-1 μg/ml): 924 % of control; Uptake of 3H-TdR (% of control), splenic lymphocytes (mouse splenic lymphocyte; 10^-3 μg/ml): 513 % of control; MLR activating rate (%) ([1]; 1 × 10^0 μg/ml): 247%; MLR activating rate (%) ([1]; 1 × 10^-1 μg/ml): 205%; Maximum tumor growth inhibiting rate, TGIR (%) (B16 mouse melanoma cells): 74.8%; T/C (%) [3, 7]: 128%; Uptake of 3H-TdR (% of control), bone marrow cells (mouse bone marrow cells; 10^-1 μg/ml): 286 % of control; Uptake of 3H-TdR (% of control), bone marrow cells (mouse bone marrow cells; 10^-2 μg/ml): 91 % of control
